One assay concerns pIRF3, pSTING. Description: Western blot of pIRF3, pSTING, pTBK1 after ISD transfection in hTERT cells. It is filed as cell-based, human. How it is done: FIG. 1C are photographs showing Western blot analysis of STING, phospho-TBK1 (pTBK1) and phospho-IRF3 (pIRF3) performed at 6 hours after ISD transfection with/without W1 treatment same as FIG. 1A, Mock is shown (210), ISD treatment only (220) was used as a control, according to an embodiment of the invention;
Immunoblot analysis: Equal amounts of proteins were resolved on sodium dodecyl sulfate (SDS)-Polyacrylamide gels and then transferred to polyvinylidene fluoride (PVDF) membranes (Millipore). After blocking with 5% Blocking Reagent, membranes were incubated with various primary antibodies (and appropriate secondary antibodies). The image was resolved using an enhanced chemiluminescence system ECL (Thermo Scientific) and detected by autoradiography (Kodak). Antibodies: rabbit polyclonal antibody against STING was developed in our laboratory as described previously in Ishikawa et al, 2008; other antibodies were obtained from following sources: β-actin (Sigma Aldrich), p-IRF3 (Cell Signaling), IRF3 (Santa Cruz Biotechnology), p-p65 (Cell Signaling), p65 (Cell Signaling), p-TBK1 (Cell Signaling), TBK1 (Abcam), cGAS (Cell Signaling).
(A western blot detects proteins with antibodies after separation by electrophoresis.)

Assay [1] deals with IFNβ expression and production. The assay can be described thus: IFNβ expression and production in normal hTERT cells (qPCR, ELISA). The settings on record: ISD transfection. It is filed as cell-based, human. How it is done:
The ability of compound W1 administered onto normal hTERT cells to prevent cytosolic DNA from activating STING was assessed (FIGS. 1B-H). […] In addition, the level of STING phosphorylation (STING is phosphorylated following activation) and the subsequent phosphorylation of TBK1, the kinase of IRF3 was assessed. Phosphorylation of TBK1 and IRF3 are required for activation of the type I IFN promoter.
Interferon R Elisa analysis: Interferon R Elisa was performed using either the IFNβ human ELISA Kit from Invitrogen or the Human IFNβ ELISA Kit from PBL Interferon Source following the manufacturer's protocol.
Quantitative Real time PCR (qPCR) Total RNA were reverse-transcribed using M-MLV Reverse Transcriptase (Promega). Real-time PCR was performed using Taqman Gene Expression Assay (Applied Biosystems) for innate immune genes and inflammatory cytokines.

A further assay deals with STING trafficking. Description: Confocal analysis of STING trafficking in hTERT cells. It is filed as cell-based, human. Particulars: 6 hours after ISD transfection. How it is done:
FIG. 1D are photographs showing confocal analysis for STING trafficking was performed at 6 hours after ISD transfection with/without W1, treatment same as FIG. 1A, according to an embodiment of the invention;
Immunofluorescence Microscopy: Cells were cultured and treated in their appropriate media on Lab-Tek II chamber slides. Cell were fixed with 4% paraformaldehyde for 15 minutes in at 37° C. and permeabilized with 0.05% Triton X-100 for 5 minutes at room temperature. Immunostaining was performed with rabbit-anti-STING polyclonal, rabbit-anti-IRF3 (Santa Cruz Biotechnology) or rabbit-anti-p65 (Cell Signaling) followed by fluorescence conjugated secondary antibodies (FITC-goat-anti-rabbit) (Invitrogen).

In assay [2] the test system is T1, human STING CBD-CTT (152-379).
T1 construct: made in house; host or cells: E. coli BL21 DE3 RIPL Codon Plus
Description: Thermal shift assay (TSA) binding to purified STING. An excerpt:
Purified STING protein was used as bait to identify binding compounds, using a thermal shift assay (TSA). A library containing 250,000 compounds (Enamine, Monmouth Jct., NJ) was surveyed. Compounds that bound to STING were then examined for their ability to inhibit STING signaling, see Examples 1-4 vide infra. In the presence of cytosolic DNA species, STING becomes activated to drive the transcription of cytokines such as type I IFN. Compounds binding to STING via TSA were subsequently examined for their ability prevent cytosolic DNA species from activating the type I interferon (IFN) promoter, using a live cell assay. This assay comprised immortalized human fibroblasts (hTERT) that were stably transfected with the type I IFN promoter driving luciferase as well as the CMV promoter driving SEAP (hTERT-pIFNβ-Glu). The ability of the small molecules to prevent activation of the type I IFN promoter and the transcription of luciferase, but not SEAP in response to cytosolic DNA species can be assessed. […]
Thermal High Throughput Screen: The denaturation profile of purified STING (STING152-379H) was calibrated using a fluorometer equipped with temperature control (a qPCR apparatus with 320 well capacity). […] Curves were measured for STING only and STING+small molecule, and ΔTm was calculated. […]

A word on the inhibition: it is the percentage by which the read-out fell short of the control. Low values mean a response near the control, high ones a response far below the control.

Take `Cc1cc([N+](=O)[O-])ccc1S(=O)(=O)Nc1nc2cc(C(F)(F)F)ccc2[nH]1` [Compound W1, 2-methyl-4-nitro-N-[5-(trifluoromethyl)-1H-1,3-benzodiazol-2-yl]benzene-1-sulfonamide]: the inhibition at 10 µM in the assay with pIRF3, pSTING (Homo sapiens) was less than 10%. For the same molecule, the “STING phosphorylation and TBK1 and IRF3 phosphorylation” value in the assay on pIRF3, pSTING (hTERT cells, 6 hours after ISD transfection) is recorded as “robustly prevented”. Also, the “IFNβ expression and production” value in assay [1] is “dramatically decreased”. Also, the STING trafficking result with STING trafficking is “effectively preventing STING trafficking”. The “binding to STING” value in assay [2] was “binds to STING”.

For the origin of these results see patent US20240270737A1, “SMALL MOLECULAR INHIBITORS OF STING SIGNALING COMPOSITIONS AND METHODS OF USE” (STINGINN INC., priority 2021, published 2024).
